In publication PMC5218480 (PLoS ONE, 2017):

System: MV-4-11 cells
Experiment: Gene expression microarray analysis (Affymetrix PrimeView) and GSEA
Type: cell-based, human
Set-up: RFU PODN (11730768_x_at) / Fold change /veh PODN (11730768_x_at) / RFU LINC00158 (11744669_a_at) / Fold change /veh LINC00158 (11744669_a_at) / RFU DUSP10 (11751237_a_at) / Fold change /veh DUSP10 (11751237_a_at) / RFU ID3 (11757404_x_at) / Fold change /veh ID3 (11757404_x_at) / RFU PLEKHG5 (11737974_s_at) / Fold change /veh PLEKHG5 (11737974_s_at) / RFU LRRC4B (11730491_at) / Fold change /veh LRRC4B (11730491_at) / RFU GIMAP4 (11747438_a_at) / Fold change /veh GIMAP4 (11747438_a_at) / RFU KRT8 (11758183_x_at) / Fold change /veh KRT8 (11758183_x_at) / RFU CNN1 (11734310_a_at) / Fold change /veh CNN1 (11734310_a_at) / RFU VPS37D (11726825_at) / Fold change /veh VPS37D (11726825_at) / RFU C10orf10 (11716522_x_at) / Fold change /veh C10orf10 (11716522_x_at) / RFU KIR2DL2 /// KIR2DL4 /// KIR2DL5A /// KIR2DL5B /// KIR2DS1 /// KIR2DS2 /// KIR2DS3 /// KIR2DS4 /// KIR3DL3 /// KIR3DL3 /// KIR3DS1 (11738374_at) / Fold change /veh KIR2DL2 /// KIR2DL4 /// KIR2DL5A /// KIR2DL5B /// KIR2DS1 /// KIR2DS2 /// KIR2DS3 /// KIR2DS4 /// KIR3DL3 /// KIR3DL3 /// KIR3DS1 (11738374_at) / RFU C1QL1 (11718748_at) / Fold change /veh C1QL1 (11718748_at) / RFU TMPRSS4 (11747572_a_at) / Fold change /veh TMPRSS4 (11747572_a_at) / RFU HAMP (11756126_x_at) / Fold change /veh HAMP (11756126_x_at) / RFU RNFT2 (11725882_a_at) / Fold change /veh RNFT2 (11725882_a_at) / RFU NR4A2 (11747474_a_at) / Fold change /veh NR4A2 (11747474_a_at) / RFU ABCC12 (11746883_a_at) / Fold change /veh ABCC12 (11746883_a_at) / RFU TMEM136 (11760407_x_at) / Fold change /veh TMEM136 (11760407_x_at) / RFU CLDN22 /// WWC2 (11732394_at) / Fold change /veh CLDN22 /// WWC2 (11732394_at) / RFU HLA-DPB1 (11760878_x_at) / Fold change /veh HLA-DPB1 (11760878_x_at) / RFU SPINT1 (11716480_a_at) / Fold change /veh SPINT1 (11716480_a_at) / RFU GAP43 (11754022_s_at) / Fold change /veh GAP43 (11754022_s_at) / RFU A4GNT (11735810_at) / Fold change /veh A4GNT (11735810_at) / RFU PRB3 (11715151_x_at) / Fold change /veh PRB3 (11715151_x_at) / RFU TUBB4B (11761932_at) / Fold change /veh TUBB4B (11761932_at) / RFU CAPN14 (11732068_a_at) / Fold change /veh CAPN14 (11732068_a_at) / RFU TMCC2 (11721928_a_at) / Fold change /veh TMCC2 (11721928_a_at) / RFU IRGQ (11745062_a_at) / Fold change /veh IRGQ (11745062_a_at) / RFU FAM174B (11720279_a_at) / Fold change /veh FAM174B (11720279_a_at) / RFU TMPRSS4 (11748680_a_at) / Fold change /veh TMPRSS4 (11748680_a_at) / RFU FAM212B (11763350_a_at) / Fold change /veh FAM212B (11763350_a_at) / RFU PLEKHG5 (11743358_a_at) / Fold change /veh PLEKHG5 (11743358_a_at) / RFU ZSCAN30 (11745921_a_at) / Fold change /veh ZSCAN30 (11745921_a_at) / RFU CMKLR1 (11741424_a_at) / Fold change /veh CMKLR1 (11741424_a_at) / RFU LOC101060620 /// MAPK8IP1 (11723275_at) / Fold change /veh LOC101060620 /// MAPK8IP1 (11723275_at) / RFU SPTSSB (11747773_x_at) / Fold change /veh SPTSSB (11747773_x_at) / RFU PRSS12 (11739890_at) / Fold change /veh PRSS12 (11739890_at) / RFU BIN1 (11741810_x_at) / Fold change /veh BIN1 (11741810_x_at) / RFU WNT11 (11732464_a_at) / Fold change /veh WNT11 (11732464_a_at) / RFU C10orf10 (11716521_a_at) / Fold change /veh C10orf10 (11716521_a_at) / RFU C5orf56 (11738089_at) / Fold change /veh C5orf56 (11738089_at) / RFU CYB561 (11721691_x_at) / Fold change /veh CYB561 (11721691_x_at) / RFU ANKRD19P (11752326_a_at) / Fold change /veh ANKRD19P (11752326_a_at) / RFU OR2T12 /// OR2T33 /// OR2T8 (11738714_s_at) / Fold change /veh OR2T12 /// OR2T33 /// OR2T8 (11738714_s_at) / RFU VCAN (11748164_a_at) / Fold change /veh VCAN (11748164_a_at) / RFU JSRP1 (11732532_at) / Fold change /veh JSRP1 (11732532_at) / RFU KRTAP10-11 (11738290_x_at) / Fold change /veh KRTAP10-11 (11738290_x_at) / RFU MYO3A (11730013_a_at) / Fold change /veh MYO3A (11730013_a_at) / RFU EBF3 (11725865_a_at) / Fold change /veh EBF3 (11725865_a_at) / RFU CAMK2N1 (11719241_x_at) / Fold change /veh CAMK2N1 (11719241_x_at) / RFU C5orf56 (11738088_a_at) / Fold change /veh C5orf56 (11738088_a_at) / RFU OLFML3 (11715873_a_at) / Fold change /veh OLFML3 (11715873_a_at) / RFU LOC100653217 /// NTM (11731650_a_at) / Fold change /veh LOC100653217 /// NTM (11731650_a_at) / RFU MAPK11 (11762145_a_at) / Fold change /veh MAPK11 (11762145_a_at) / RFU FIZ1 (11724087_x_at) / Fold change /veh FIZ1 (11724087_x_at) / RFU OASL (11726364_x_at) / Fold change /veh OASL (11726364_x_at) / RFU SOX15 (11748057_x_at) / Fold change /veh SOX15 (11748057_x_at) / RFU CD79A (11719716_a_at) / Fold change /veh CD79A (11719716_a_at) / RFU HIST1H1D (11736915_at) / Fold change /veh HIST1H1D (11736915_at) / RFU CASKIN2 (11723855_a_at) / Fold change /veh CASKIN2 (11723855_a_at) / RFU LOC730098 (11760151_x_at) / Fold change /veh LOC730098 (11760151_x_at) / RFU OR4N2 (11742367_at) / Fold change /veh OR4N2 (11742367_at) / RFU PRRT2 (11749266_a_at) / Fold change /veh PRRT2 (11749266_a_at) / RFU SNX32 (11753110_a_at) / Fold change /veh SNX32 (11753110_a_at) / RFU CDHR5 (11726645_a_at) / Fold change /veh CDHR5 (11726645_a_at) / RFU RCAN1 (11760418_a_at) / Fold change /veh RCAN1 (11760418_a_at) / RFU FAM167A (11723789_a_at) / Fold change /veh FAM167A (11723789_a_at) / RFU FAM26E (11764081_at) / Fold change /veh FAM26E (11764081_at) / RFU ISYNA1 (11749810_s_at) / Fold change /veh ISYNA1 (11749810_s_at) / RFU ACY1 (11761880_at) / Fold change /veh ACY1 (11761880_at) / RFU 11764098_at / Fold change /veh 11764098_at / RFU SAMD14 (11745864_x_at) / Fold change /veh SAMD14 (11745864_x_at) / RFU NPB (11741838_a_at) / Fold change /veh NPB (11741838_a_at) / RFU TMPRSS6 (11731388_a_at) / Fold change /veh TMPRSS6 (11731388_a_at) / RFU KRTAP10-2 (11738614_at) / Fold change /veh KRTAP10-2 (11738614_at) / RFU ARHGAP8 /// PRR5-ARHGAP8 (11727945_x_at) / Fold change /veh ARHGAP8 /// PRR5-ARHGAP8 (11727945_x_at) / RFU KRTAP5-7 /// NADSYN1 (11734609_at) / Fold change /veh KRTAP5-7 /// NADSYN1 (11734609_at) / RFU RASL12 (11751679_a_at) / Fold change /veh RASL12 (11751679_a_at) / RFU CDKN2B (11736163_a_at) / Fold change /veh CDKN2B (11736163_a_at) / RFU PRF1 (11729649_at) / Fold change /veh PRF1 (11729649_at) / RFU, ZNF638 /// ZNF638-IT1 / Fold change vs veh, ZNF638 /// ZNF638-IT1 / RFU, PANK3 / Fold change vs veh, PANK3 / RFU, SH3YL1 / Fold change vs veh, SH3YL1 / RFU, ZEB2 / Fold change vs veh, ZEB2 / RFU, NRIP1 / Fold change vs veh, NRIP1 / RFU, PTTG1IP / Fold change vs veh, PTTG1IP / RFU, CAPN2 / Fold change vs veh, CAPN2 / RFU, MED14 / Fold change vs veh, MED14 / RFU, SNORA58 / Fold change vs veh, SNORA58 / RFU, C1orf63 / Fold change vs veh, C1orf63 / RFU, LRRFIP1 / Fold change vs veh, LRRFIP1 / RFU, NDUFAF7 / Fold change vs veh, NDUFAF7 / RFU, SLC12A2 / Fold change vs veh, SLC12A2 / RFU, IBTK / Fold change vs veh, IBTK / RFU, ESF1 / Fold change vs veh, ESF1 / Fold change vs veh, TMEM50B / RFU, TAOK1 / Fold change vs veh, TAOK1 / RFU, ACBD3 / Fold change vs veh, ACBD3 / RFU, TMA16 / Fold change vs veh, TMA16 / RFU, RWDD3 / Fold change vs veh, RWDD3 / RFU, BCAT1 / Fold change vs veh, BCAT1 / RFU, EDEM3 / Fold change vs veh, EDEM3 / RFU, TMEM33 / Fold change vs veh, TMEM33 / RFU, WDR75 / Fold change vs veh, WDR75 / RFU, AHCTF1 / Fold change vs veh, AHCTF1 / RFU, TFRC / Fold change vs veh, TFRC / RFU, ZDHHC17 / Fold change vs veh, ZDHHC17 / RFU, NOM1 / Fold change vs veh, NOM1 / RFU, ARL8B / Fold change vs veh, ARL8B / RFU, ZBTB11 / Fold change vs veh, ZBTB11 / RFU, TAMM41 / Fold change vs veh, TAMM41 / RFU, KIAA1704 /// LOC100996395 / Fold change vs veh, KIAA1704 /// LOC100996395 / RFU, ING1 / Fold change vs veh, ING1 / RFU, TRMT61B / Fold change vs veh, TRMT61B / RFU, FUBP3 / Fold change vs veh, FUBP3 / RFU, TP53 / Fold change vs veh, TP53 / RFU, TNKS2 / Fold change vs veh, TNKS2 / RFU, ZFP14 / Fold change vs veh, ZFP14 / RFU, ACTR2 / Fold change vs veh, ACTR2 / RFU, PPP3R1 / Fold change vs veh, PPP3R1 / RFU, PIK3R1 / Fold change vs veh, PIK3R1 / RFU, HNRNPA1 / Fold change vs veh, HNRNPA1 / RFU, RNF170 / Fold change vs veh, RNF170 / RFU, ZNF28 / Fold change vs veh, ZNF28 / RFU, RNGTT / Fold change vs veh, RNGTT / RFU, OGT / Fold change vs veh, OGT / RFU, BRD1 / Fold change vs veh, BRD1 / RFU, MARS / Fold change vs veh, MARS / RFU, ZNF655 / Fold change vs veh, ZNF655 / RFU, FAHD1 / Fold change vs veh, FAHD1 / RFU, BDP1 / Fold change vs veh, BDP1 / RFU, LRRCC1 / Fold change vs veh, LRRCC1 / RFU, ARID1A / Fold change vs veh, ARID1A / RFU, ZNF146 / Fold change vs veh, ZNF146 / RFU, ZNF330 / Fold change vs veh, ZNF330 / RFU, GPN3 / Fold change vs veh, GPN3 / RFU, C9orf123 / Fold change vs veh, C9orf123 / RFU, N4BP2L2 / Fold change vs veh, N4BP2L2 / RFU, ARFIP1 / Fold change vs veh, ARFIP1 / RFU, FAM179B / Fold change vs veh, FAM179B / RFU, BCL10 / Fold change vs veh, BCL10 / RFU, UHRF1BP1L / Fold change vs veh, UHRF1BP1L / RFU, BET1 / Fold change vs veh, BET1 / RFU, CNOT2 / Fold change vs veh, CNOT2 / RFU, ZNF268 / Fold change vs veh, ZNF268 / Fold change vs veh, ZNF507 / RFU, DGCR2 / Fold change vs veh, DGCR2 / RFU, WDSUB1 / Fold change vs veh, WDSUB1 / Fold change vs veh, HSP90B1 /// MIR3652 / RFU, ADSS / Fold change vs veh, ADSS / RFU, GK / Fold change vs veh, GK / RFU, ZNF148 / Fold change vs veh, ZNF148 / RFU, TAF9 / Fold change vs veh, TAF9 / RFU, SLC1A5 / Fold change vs veh, SLC1A5 / RFU, SLMO2 / Fold change vs veh, SLMO2 / RFU, ABCC4 / Fold change vs veh, ABCC4 / RFU, LOC101060439 /// RAP1B / Fold change vs veh, LOC101060439 /// RAP1B / RFU, RFX7 / Fold change vs veh, RFX7 / RFU, GTPBP10 / Fold change vs veh, GTPBP10 / RFU, CNEP1R1 / Fold change vs veh, CNEP1R1 / RFU, BIVM-ERCC5 /// ERCC5 / Fold change vs veh, BIVM-ERCC5 /// ERCC5 / RFU, ILF3 / Fold change vs veh, ILF3 / RFU 11762660_at / Fold change /veh 11762660_at / RFU VCAN (11757783_s_at) / Fold change /veh VCAN (11757783_s_at) / RFU DDX43 (11728927_at) / Fold change /veh DDX43 (11728927_at) / RFU KRT8 (11758188_x_at) / Fold change /veh KRT8 (11758188_x_at) / RFU NKD1 (11759106_at) / Fold change /veh NKD1 (11759106_at) / RFU SRD5A1 (11742802_a_at) / Fold change /veh SRD5A1 (11742802_a_at) / RFU TPSAB1 /// TPSB2 (11721975_s_at) / Fold change /veh TPSAB1 /// TPSB2 (11721975_s_at) / RFU GSTM3 (11746129_a_at) / Fold change /veh GSTM3 (11746129_a_at) / RFU IL23R (11737362_x_at) / Fold change /veh IL23R (11737362_x_at) / RFU TMEM51 (11727254_a_at) / Fold change /veh TMEM51 (11727254_a_at) / RFU PIWIL2 (11732686_x_at) / Fold change /veh PIWIL2 (11732686_x_at) / RFU ORM1 (11744905_x_at) / Fold change /veh ORM1 (11744905_x_at) / RFU CCDC152 (11743942_at) / Fold change /veh CCDC152 (11743942_at) / RFU ECM1 (11717891_a_at) / Fold change /veh ECM1 (11717891_a_at) / RFU IL23R (11748794_a_at) / Fold change /veh IL23R (11748794_a_at) / RFU TNFAIP8L3 (11732012_x_at) / Fold change /veh TNFAIP8L3 (11732012_x_at) / RFU MBOAT4 (11741988_at) / Fold change /veh MBOAT4 (11741988_at) / RFU 11764193_at / Fold change /veh 11764193_at / RFU TMEM53 (11763286_at) / Fold change /veh TMEM53 (11763286_at) / RFU MAGEB2 (11727129_at) / Fold change /veh MAGEB2 (11727129_at) / RFU TMEM200A (11744735_a_at) / Fold change /veh TMEM200A (11744735_a_at) / RFU CCDC152 (11751479_a_at) / Fold change /veh CCDC152 (11751479_a_at) / RFU FAM211A (11726209_a_at) / Fold change /veh FAM211A (11726209_a_at) / RFU RGS16 (11746705_a_at) / Fold change /veh RGS16 (11746705_a_at) / RFU VCAN (11755009_s_at) / Fold change /veh VCAN (11755009_s_at) / RFU RHOB (11743442_s_at) / Fold change /veh RHOB (11743442_s_at) / RFU RGS16 (11720943_a_at) / Fold change /veh RGS16 (11720943_a_at) / RFU RGS16 (11720944_at) / Fold change /veh RGS16 (11720944_at) / RFU, VPS4B / Fold change vs veh, VPS4B / RFU, CREB1 / Fold change vs veh, CREB1 / RFU, DNAJC13 / Fold change vs veh, DNAJC13 / RFU, GNAQ / Fold change vs veh, GNAQ / RFU, CDK5R1 / Fold change vs veh, CDK5R1 / RFU, ZRANB3 / Fold change vs veh, ZRANB3 / RFU, CUL4A / Fold change vs veh, CUL4A / RFU, CCNY / Fold change vs veh, CCNY / RFU, UFL1 / Fold change vs veh, UFL1 / RFU, COG3 / Fold change vs veh, COG3 / RFU, DIAPH2 / Fold change vs veh, DIAPH2 / RFU, SKA2 / Fold change vs veh, SKA2 / RFU, AFF3 / Fold change vs veh, AFF3 / RFU, LMF1 / Fold change vs veh, LMF1 / RFU, IPO11 / Fold change vs veh, IPO11 / RFU, DFFB / Fold change vs veh, DFFB / RFU, FOXP1 / Fold change vs veh, FOXP1 / RFU, CARD8 / Fold change vs veh, CARD8 / RFU, STRN3 / Fold change vs veh, STRN3 / RFU, ADK / Fold change vs veh, ADK / RFU, RASSF2 / Fold change vs veh, RASSF2 / RFU, WIPF1 / Fold change vs veh, WIPF1 / RFU, LARP1B / Fold change vs veh, LARP1B / RFU, RASA1 / Fold change vs veh, RASA1 / RFU, RB1 / Fold change vs veh, RB1 / RFU, PPFIA1 / Fold change vs veh, PPFIA1 / RFU, MAT2A / Fold change vs veh, MAT2A / RFU, CCT5 / Fold change vs veh, CCT5 / RFU, WDR92 / Fold change vs veh, WDR92 / RFU, CUX1 / Fold change vs veh, CUX1 / RFU, TTC7A / Fold change vs veh, TTC7A / RFU, TMEM135 / Fold change vs veh, TMEM135 / RFU, DEPTOR / Fold change vs veh, DEPTOR / RFU, CPM / Fold change vs veh, CPM / RFU, DNAJB6 / Fold change vs veh, DNAJB6 / RFU, CACNA2D3 / Fold change vs veh, CACNA2D3 / RFU, DTX4 / Fold change vs veh, DTX4 / RFU, TFCP2 / Fold change vs veh, TFCP2 / RFU, GMCL1 /// GMCL1P1 / Fold change vs veh, GMCL1 /// GMCL1P1 / RFU, AEBP2 / Fold change vs veh, AEBP2 / RFU, SNHG1 /// SNORD22 /// SNORD25 /// SNORD26 /// SNORD27 /// SNORD28 /// SNORD29 /// SNORD31 / Fold change vs veh, SNHG1 /// SNORD22 /// SNORD25 /// SNORD26 /// SNORD27 /// SNORD28 /// SNORD29 /// SNORD31 / Fold change (Aza/veh), C12orf56 (ProbeSet 11735607_a_at) / Fold change (ACY-1035/veh), C12orf56 (ProbeSet 11735607_a_at) / Fold change (Aza/veh), FGFR1OP (ProbeSet 11751329_s_at) / Fold change (ACY-1035/veh), FGFR1OP (ProbeSet 11751329_s_at) / Fold change (Aza/veh), VPS36 (ProbeSet 11739960_a_at) / Fold change (ACY-1035/veh), VPS36 (ProbeSet 11739960_a_at) / RFU SYPL1 (11715823_x_at) / Fold change /veh SYPL1 (11715823_x_at) / RFU IGFBP7 (11715501_s_at) / Fold change /veh IGFBP7 (11715501_s_at) / RFU REEP3 (11722064_at) / Fold change /veh REEP3 (11722064_at) / RFU IGLL1 (11728026_x_at) / Fold change /veh IGLL1 (11728026_x_at): dose or concentration left out as unconfirmed
Conditions: ProbeSet 11725902_s_at; LIST D

Nc1ncn([C@@H]2O[C@H](CO)[C@@H](O)[C@H]2O)c(=O)n1 [azacitidine]
RFU, TMEM135: 62.37 RFU
